Numbers after ± are expanded uncertainties.
Experiment: xn = mol fraction of the nth substance listed
Details: 101 kPa, Liquid

CCCCC(=O)OC [methyl pentanoate] + CCCCCCO
Capillary tube (Ostwald / Ubbelohde) method
Details | kinematic viscosity [m2/s]
293.15 K, x1 = 0.085 | 4.728e-06 ± 3.3e-08
293.15 K, x1 = 0.1145 | 4.25e-06 ± 3e-08
293.15 K, x1 = 0.1854 | 3.367e-06 ± 2.4e-08
293.15 K, x1 = 0.2862 | 2.527e-06 ± 1.8e-08
293.15 K, x1 = 0.4123 | 1.87e-06 ± 1.4e-08
293.15 K, x1 = 0.5087 | 1.533e-06 ± 1.2e-08
293.15 K, x1 = 0.6157 | 1.256e-06 ± 1e-08
293.15 K, x1 = 0.6835 | 1.129e-06 ± 9e-09
293.15 K, x1 = 0.7846 | 9.82e-07 ± 8e-09
293.15 K, x1 = 0.9071 | 8.57e-07 ± 7e-09
293.15 K, x1 = 0.9274 | 8.42e-07 ± 7e-09
293.15 K, x1 = 1 | 8e-07 ± 7e-09
303.15 K, x1 = 0.0771 | 3.701e-06 ± 2.6e-08
303.15 K, x1 = 0.1183 | 3.251e-06 ± 2.3e-08
303.15 K, x1 = 0.192 | 2.619e-06 ± 1.9e-08
303.15 K, x1 = 0.2983 | 1.994e-06 ± 1.5e-08
303.15 K, x1 = 0.4502 | 1.436e-06 ± 1.1e-08
303.15 K, x1 = 0.4593 | 1.412e-06 ± 1.1e-08
303.15 K, x1 = 0.5089 | 1.285e-06 ± 1e-08
303.15 K, x1 = 0.613 | 1.085e-06 ± 9e-09
303.15 K, x1 = 0.691 | 9.67e-07 ± 8e-09
303.15 K, x1 = 0.7873 | 8.55e-07 ± 7e-09
303.15 K, x1 = 0.8796 | 7.75e-07 ± 7e-09
303.15 K, x1 = 0.9346 | 7.39e-07 ± 6e-09
303.15 K, x1 = 1 | 7.08e-07 ± 6e-09
313.15 K, x1 = 0.0802 | 2.858e-06 ± 2e-08
313.15 K, x1 = 0.1168 | 2.58e-06 ± 1.8e-08
313.15 K, x1 = 0.1965 | 2.082e-06 ± 1.5e-08
313.15 K, x1 = 0.2939 | 1.644e-06 ± 1.2e-08
313.15 K, x1 = 0.3995 | 1.321e-06 ± 1e-08
313.15 K, x1 = 0.5141 | 1.083e-06 ± 9e-09
313.15 K, x1 = 0.548 | 1.028e-06 ± 8e-09
313.15 K, x1 = 0.5971 | 9.61e-07 ± 8e-09
313.15 K, x1 = 0.6912 | 8.44e-07 ± 7e-09
313.15 K, x1 = 0.7876 | 7.52e-07 ± 6e-09
313.15 K, x1 = 0.9035 | 6.75e-07 ± 6e-09
313.15 K, x1 = 0.9358 | 6.58e-07 ± 6e-09
313.15 K, x1 = 1 | 6.34e-07 ± 6e-09

Details | mass density [kg/m3]
293.15 K, x1 = 0.085 | 824.62 ± 0.3
293.15 K, x1 = 0.1145 | 826.65 ± 0.3
293.15 K, x1 = 0.1854 | 831.55 ± 0.31
293.15 K, x1 = 0.2862 | 838.56 ± 0.33
293.15 K, x1 = 0.4123 | 847.4 ± 0.35
293.15 K, x1 = 0.5087 | 854.22 ± 0.37
293.15 K, x1 = 0.6157 | 861.84 ± 0.39
293.15 K, x1 = 0.6835 | 866.67 ± 0.4
293.15 K, x1 = 0.7846 | 873.96 ± 0.43
293.15 K, x1 = 0.9071 | 882.86 ± 0.45
293.15 K, x1 = 0.9274 | 884.35 ± 0.46
293.15 K, x1 = 1 | 889.75 ± 0.47
303.15 K, x1 = 0.0771 | 816.54 ± 0.3
303.15 K, x1 = 0.1183 | 819.23 ± 0.31
303.15 K, x1 = 0.192 | 824.09 ± 0.32
303.15 K, x1 = 0.2983 | 831.16 ± 0.33
303.15 K, x1 = 0.4502 | 841.37 ± 0.36
303.15 K, x1 = 0.4593 | 841.99 ± 0.36
303.15 K, x1 = 0.5089 | 845.34 ± 0.37
303.15 K, x1 = 0.613 | 852.44 ± 0.39
303.15 K, x1 = 0.691 | 857.8 ± 0.4
303.15 K, x1 = 0.7873 | 864.46 ± 0.42
303.15 K, x1 = 0.8796 | 870.9 ± 0.44
303.15 K, x1 = 0.9346 | 874.8 ± 0.46
303.15 K, x1 = 1 | 879.51 ± 0.47
313.15 K, x1 = 0.0802 | 809.21 ± 0.3
313.15 K, x1 = 0.1168 | 811.47 ± 0.31
313.15 K, x1 = 0.1965 | 816.46 ± 0.32
313.15 K, x1 = 0.2939 | 822.62 ± 0.33
313.15 K, x1 = 0.3995 | 829.39 ± 0.35
313.15 K, x1 = 0.5141 | 836.8 ± 0.37
313.15 K, x1 = 0.548 | 838.99 ± 0.38
313.15 K, x1 = 0.5971 | 842.2 ± 0.39
313.15 K, x1 = 0.6912 | 848.37 ± 0.4
313.15 K, x1 = 0.7876 | 854.78 ± 0.42
313.15 K, x1 = 0.9035 | 862.6 ± 0.45
313.15 K, x1 = 0.9358 | 864.8 ± 0.45
313.15 K, x1 = 1 | 869.32 ± 0.47

CCCCCCO [hexan-1-ol] + CCCCCCCC
Details | kinematic viscosity [m2/s] | mass density [kg/m3]
293.15 K, x2 = 0 | 6.61e-06 ± 6.9e-08 | 818.84 ± 0.29
293.15 K, x2 = 0.0618 | 5.49e-06 ± 6e-08 | 809.74 ± 0.29
293.15 K, x2 = 0.086 | – | 806.25 ± 0.29
293.15 K, x2 = 0.1114 | 4.74e-06 ± 5.3e-08 | 802.62 ± 0.29
293.15 K, x2 = 0.1597 | – | 795.86 ± 0.29
293.15 K, x2 = 0.1891 | – | 791.83 ± 0.29
293.15 K, x2 = 0.1928 | 3.74e-06 ± 4.2e-08 | 791.32 ± 0.29
293.15 K, x2 = 0.2346 | – | 785.68 ± 0.29
293.15 K, x2 = 0.3022 | 2.75e-06 ± 3.1e-08 | 776.82 ± 0.29
293.15 K, x2 = 0.4039 | 2.08e-06 ± 2.4e-08 | 764.07 ± 0.29
293.15 K, x2 = 0.495 | 1.67e-06 ± 2e-08 | 753.22 ± 0.29
293.15 K, x2 = 0.4994 | – | 752.71 ± 0.29
293.15 K, x2 = 0.6088 | 1.31e-06 ± 1.6e-08 | 740.42 ± 0.29
293.15 K, x2 = 0.715 | 1.08e-06 ± 1.3e-08 | 729.21 ± 0.29
293.15 K, x2 = 0.7991 | – | 720.79 ± 0.3
293.15 K, x2 = 0.8086 | 9.47e-07 ± 1.2e-08 | 719.86 ± 0.3
293.15 K, x2 = 0.8381 | – | 717.02 ± 0.3
293.15 K, x2 = 0.8767 | – | 713.37 ± 0.3
293.15 K, x2 = 0.9078 | 8.43e-07 ± 1.1e-08 | 710.5 ± 0.3
293.15 K, x2 = 0.9272 | – | 708.75 ± 0.3
293.15 K, x2 = 0.9458 | 8.03e-07 ± 1e-08 | 707.09 ± 0.3
303.15 K, x2 = 0 | 4.88e-06 ± 5.4e-08 | 811.56 ± 0.29
303.15 K, x2 = 0.0233 | – | 808.05 ± 0.29
303.15 K, x2 = 0.051 | – | 803.93 ± 0.29
303.15 K, x2 = 0.086 | 3.85e-06 ± 4.3e-08 | 798.81 ± 0.29
303.15 K, x2 = 0.1189 | – | 794.07 ± 0.29
303.15 K, x2 = 0.1308 | 3.41e-06 ± 3.9e-08 | 792.38 ± 0.29
303.15 K, x2 = 0.1581 | – | 788.53 ± 0.29
303.15 K, x2 = 0.188 | 2.94e-06 ± 3.4e-08 | 784.37 ± 0.29
303.15 K, x2 = 0.1922 | – | 783.8 ± 0.29
303.15 K, x2 = 0.2352 | – | 777.94 ± 0.29
303.15 K, x2 = 0.2632 | – | 774.2 ± 0.29
303.15 K, x2 = 0.308 | 2.15e-06 ± 2.5e-08 | 768.33 ± 0.29
303.15 K, x2 = 0.369 | – | 760.56 ± 0.29
303.15 K, x2 = 0.3936 | 1.75e-06 ± 2.1e-08 | 757.47 ± 0.29
303.15 K, x2 = 0.4152 | – | 754.82 ± 0.29
303.15 K, x2 = 0.4508 | – | 750.49 ± 0.29
303.15 K, x2 = 0.4994 | 1.38e-06 ± 1.7e-08 | 744.75 ± 0.29
303.15 K, x2 = 0.5249 | – | 741.79 ± 0.29
303.15 K, x2 = 0.578 | – | 735.78 ± 0.29
303.15 K, x2 = 0.5852 | 1.17e-06 ± 1.4e-08 | 734.98 ± 0.29
303.15 K, x2 = 0.6255 | – | 730.55 ± 0.3
303.15 K, x2 = 0.7026 | 9.66e-07 ± 1.2e-08 | 722.36 ± 0.3
303.15 K, x2 = 0.7143 | – | 721.15 ± 0.3
303.15 K, x2 = 0.774 | – | 715.1 ± 0.3
303.15 K, x2 = 0.7909 | – | 713.42 ± 0.3
303.15 K, x2 = 0.8042 | 8.42e-07 ± 1.1e-08 | 712.11 ± 0.3
303.15 K, x2 = 0.8532 | – | 707.39 ± 0.3
303.15 K, x2 = 0.8767 | 7.73e-07 ± 1e-08 | 705.17 ± 0.3
303.15 K, x2 = 0.9009 | – | 702.91 ± 0.31
303.15 K, x2 = 0.9272 | 7.36e-07 ± 1e-08 | 700.52 ± 0.31
303.15 K, x2 = 0.947 | – | 698.76 ± 0.31
313.15 K, x2 = 0 | 3.69e-06 ± 4.2e-08 | 804.28 ± 0.3
313.15 K, x2 = 0.0229 | – | 800.79 ± 0.29
313.15 K, x2 = 0.0502 | – | 796.68 ± 0.29
313.15 K, x2 = 0.0646 | 3.13e-06 ± 3.6e-08 | 794.53 ± 0.29
313.15 K, x2 = 0.0825 | – | 791.88 ± 0.29
313.15 K, x2 = 0.1067 | 2.81e-06 ± 3.2e-08 | 788.35 ± 0.29
313.15 K, x2 = 0.1205 | – | 786.35 ± 0.29
313.15 K, x2 = 0.1569 | – | 781.14 ± 0.29
313.15 K, x2 = 0.2007 | 2.24e-06 ± 2.6e-08 | 774.99 ± 0.29
313.15 K, x2 = 0.2441 | – | 769.04 ± 0.29
313.15 K, x2 = 0.2976 | 1.78e-06 ± 2.1e-08 | 761.89 ± 0.29
313.15 K, x2 = 0.3132 | – | 759.85 ± 0.29
313.15 K, x2 = 0.3441 | – | 755.84 ± 0.29
313.15 K, x2 = 0.3882 | 1.46e-06 ± 1.7e-08 | 750.23 ± 0.3
313.15 K, x2 = 0.3938 | – | 749.53 ± 0.3
313.15 K, x2 = 0.4703 | – | 740.16 ± 0.3
313.15 K, x2 = 0.4916 | 1.18e-06 ± 1.4e-08 | 737.63 ± 0.3
313.15 K, x2 = 0.4949 | – | 737.24 ± 0.3
313.15 K, x2 = 0.5873 | 1e-06 ± 1.2e-08 | 726.62 ± 0.3
313.15 K, x2 = 0.6023 | – | 724.95 ± 0.3
313.15 K, x2 = 0.6746 | – | 717.11 ± 0.3
313.15 K, x2 = 0.6964 | – | 714.81 ± 0.3
313.15 K, x2 = 0.7108 | 8.36e-07 ± 1.1e-08 | 713.3 ± 0.3
313.15 K, x2 = 0.757 | – | 708.56 ± 0.31
313.15 K, x2 = 0.7619 | – | 708.06 ± 0.31
313.15 K, x2 = 0.7893 | 7.56e-07 ± 1e-08 | 705.32 ± 0.31
313.15 K, x2 = 0.8428 | – | 700.08 ± 0.31
313.15 K, x2 = 0.8748 | – | 697.03 ± 0.31
313.15 K, x2 = 0.9109 | 6.67e-07 ± 9e-09 | 693.67 ± 0.31
313.15 K, x2 = 0.9297 | – | 691.97 ± 0.31
313.15 K, x2 = 0.9599 | 6.41e-07 ± 9e-09 | 689.33 ± 0.31
